One data set concerns M. leprae 3β-HSD. Also on record: method as in PMID 34395315. The settings on record: cited from earlier work.
The test system of another data set is M. leprae. More on the design: method as in PMID 34395315. Conditions: cited from earlier work.
The test system of data set [1] is human type 2 5α-reductase. More on the design: method as in PMID 8057283. The settings on record: cited from earlier work.
The next data set has as its target T1, Androgen Receptor (Homo sapiens, UniProt P10275, T878A).
T1 construct: (ii) AR (human) LNCaP cells (cytosol); host or cells: LNCaP cells (cytosol)
T1 sequence (P10275 1-920 T878A): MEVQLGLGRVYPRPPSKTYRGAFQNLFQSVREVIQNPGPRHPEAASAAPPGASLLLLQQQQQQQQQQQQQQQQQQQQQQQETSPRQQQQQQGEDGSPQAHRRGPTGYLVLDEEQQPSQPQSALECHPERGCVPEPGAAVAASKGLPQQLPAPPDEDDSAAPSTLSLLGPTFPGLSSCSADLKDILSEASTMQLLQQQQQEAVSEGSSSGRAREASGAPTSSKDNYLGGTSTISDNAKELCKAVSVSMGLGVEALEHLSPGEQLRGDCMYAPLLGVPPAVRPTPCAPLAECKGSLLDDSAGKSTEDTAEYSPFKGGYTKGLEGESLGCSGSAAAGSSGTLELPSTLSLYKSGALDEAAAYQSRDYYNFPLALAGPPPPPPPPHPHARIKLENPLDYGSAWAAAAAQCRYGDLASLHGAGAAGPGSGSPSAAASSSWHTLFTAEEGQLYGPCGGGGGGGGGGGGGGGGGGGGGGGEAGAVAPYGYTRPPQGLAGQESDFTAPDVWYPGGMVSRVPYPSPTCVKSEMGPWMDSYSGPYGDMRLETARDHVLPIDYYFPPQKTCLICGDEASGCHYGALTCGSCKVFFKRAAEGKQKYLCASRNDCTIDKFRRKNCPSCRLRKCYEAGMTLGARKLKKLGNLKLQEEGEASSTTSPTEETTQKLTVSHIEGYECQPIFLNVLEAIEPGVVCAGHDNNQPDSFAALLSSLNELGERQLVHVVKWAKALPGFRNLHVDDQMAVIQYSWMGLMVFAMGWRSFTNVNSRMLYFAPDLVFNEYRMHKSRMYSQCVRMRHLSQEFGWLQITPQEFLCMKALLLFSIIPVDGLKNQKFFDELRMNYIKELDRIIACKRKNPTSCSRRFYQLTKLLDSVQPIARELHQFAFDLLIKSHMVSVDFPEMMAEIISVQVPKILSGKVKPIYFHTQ
The experiment in a line: androgen receptor radioligand binding inhibition. Conditions: [3H]methyltrienolone binding, LNCaP cells cytosol. On the procedure:
(§1) Four nuclear receptors: glucocorticoid, androgen, LXRα, and LXRβ were assayed. Inhibition of agonist binding to each of the receptors was carried out following a standard protocol by Eurofins, Inc., USA. Compounds were tested at 10 µM. Compound binding was measured by scintillation counting and was calculated as a % inhibition of the binding of a radioactively labeled ligand specific for each target. Percent inhibition of control specific binding was expressed as
(§2) 100−[(measured specific binding)/(control specific binding)∗100]
(§3) where measured specific binding is the amount of radioactive ligand binding obtained in the presence of test compounds.
(§4) (iii) LXRα (human) recombinant protein expressed in E. coli; agonist radioligand 20 nM [^3H] […] (iv) LXRβ (human) recombinant protein expressed in E. coli; agonist radioligand 20 nM [^3H]

A further data set is described as follows: in vivo. Conditions: female, Balb/c, mouse, po, 100 mg/kg. How it is done:
Compound 5 was solubilized in 5% DMSO in 10% Solutol with 100 mM citrate buffer (pH 3) and was tested in Balb/c female mice, approximately 8 weeks old and 20 g, at 100 mg/kg with or without 10 mg/kg rifampicin. Mice (n = 3 per group) were treated PO with drug or vehicle once daily at 8 AM. Body weights were measured daily prior to dosing. […] On day 5, mice were sacrificed at 6 h post-dose, and whole blood and plasma were extracted for complete blood count and blood chemistry profiling on an Element HT5 system (Heska, USA) and plasma drug concentration analysis was performed by LC-MS (Sciex API 4500 Triple Quad, Shimadzu LC-30A). Calibration curves were prepared as described above for in vivo metabolism and pharmacokinetics.

For a further data set, the target named is T2, Glucocorticoid Receptor (Homo sapiens, UniProt P04150).
T2 construct: (i) GR (human) IM-9 cells (cytosol); host or cells: IM-9 cells (cytosol)
T2 sequence (P04150 1-777): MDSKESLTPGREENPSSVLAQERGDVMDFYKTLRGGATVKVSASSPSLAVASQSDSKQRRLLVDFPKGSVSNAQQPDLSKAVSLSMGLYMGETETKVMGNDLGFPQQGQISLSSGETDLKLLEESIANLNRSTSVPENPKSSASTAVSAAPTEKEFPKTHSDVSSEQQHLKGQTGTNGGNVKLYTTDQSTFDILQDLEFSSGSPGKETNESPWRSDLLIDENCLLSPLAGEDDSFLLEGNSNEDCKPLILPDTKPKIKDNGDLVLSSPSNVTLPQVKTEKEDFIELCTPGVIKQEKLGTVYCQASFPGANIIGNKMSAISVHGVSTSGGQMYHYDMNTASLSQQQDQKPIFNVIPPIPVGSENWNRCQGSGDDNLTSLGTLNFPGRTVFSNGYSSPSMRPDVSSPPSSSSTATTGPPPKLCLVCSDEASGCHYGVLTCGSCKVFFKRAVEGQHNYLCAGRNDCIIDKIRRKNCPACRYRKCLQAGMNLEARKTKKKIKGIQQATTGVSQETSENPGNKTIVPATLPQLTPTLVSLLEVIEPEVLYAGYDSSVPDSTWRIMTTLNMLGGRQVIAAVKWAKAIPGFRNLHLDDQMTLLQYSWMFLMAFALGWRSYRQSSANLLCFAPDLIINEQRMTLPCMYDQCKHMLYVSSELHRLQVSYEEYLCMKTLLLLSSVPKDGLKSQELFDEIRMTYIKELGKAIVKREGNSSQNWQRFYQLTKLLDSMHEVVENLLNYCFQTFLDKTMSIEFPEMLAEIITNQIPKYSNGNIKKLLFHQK
The experiment in a line: glucocorticoid receptor radioligand binding inhibition. Conditions: [3H]dexamethasone binding, IM-9 cells cytosol. On the procedure: as §1, §2, §3, §4

On to `CC(C)(C)c1ccc(C(C)(C)C)c(NC(=O)C2CCC3C4CNC5=CC(=O)CC[C@]5(C)C4CC[C@]23C)c1` (some centres unmarked) [Compound 1], for which, in the data set on M. leprae 3β-HSD, the “M. leprae 3β-HSD activity (cholestenone production in axenic medium)” value was “inhibits M. leprae 3β-HSD activity”. In the data set on M. leprae, the “intracellular viability of M. leprae in vitro” value is listed as “reduce the intracellular viability of M. leprae in vitro”.

By inhibition is commonly meant the drop in the measured response relative to a control, in per cent. On to `C[C@]12CCC3C(CNC4=CC(=O)CC[C@@]43C)C1CCC2C(=O)NC(c1ccc(F)cc1)c1ccc(F)cc1` (some centres unmarked) [Compound 5], for which the “inhibition of human type 2 5α-reductase” value in data set [1] is “nanomolar inhibitor”. Also, the “% inhibition observed, Androgen Receptor” value on Androgen Receptor (10 µM) is recorded as “low binding”. For the same molecule, the inhibition at 10 µM was determined as 9.1% at Androgen Receptor (read-out: % inhibition observed, Androgen Receptor) and 46.4% on Glucocorticoid Receptor (read-out: % inhibition observed, Glucocorticoid Receptor). For the same molecule, in the data set “in vivo”, the concentration at 6 h was found to be 292 ± 59 µM. Also, on Glucocorticoid Receptor (10 µM), the “% inhibition observed, Glucocorticoid Receptor” value is reported as “moderate”.

The values above are taken from PMC12210912, “Pharmacologic properties and inhibitory activity of 6-azasteroids against Mycobacterium leprae in vivo and in vitro” (Microbiology Spectrum, 2025).
